Assay results published in patent publication EP4603105A1, “PHARMACEUTICAL COMPOSITION CONTAINING CYCLIC COMPOUND HAVING SELECTIVE KRAS INHIBITORY EFFECT AGAINST HRAS AND NRAS” (CHUGAI SEIYAKU KABUSHIKI KAISHA, priority 2022, dated 2024).
Where a SMILES comes first, the peptide text is derived from it. Bridges are numbered along the chain shown (N, C = ends). [ ]: non-standard residue; d: D form. The star is where a group is joined. hPhe(3-Cl-4-CF3) = N[C@@H](CCc1ccc(C(F)(F)F)c(Cl)c1)C(=O)O; NPrPhe(4-CF3) = CCCN[C@@H](Cc1ccc(C(F)(F)F)cc1)C(=O)O; NMeGly(cPent) = CN[C@H](C(=O)O)C1CCCC1; Hyp = O=C(O)[C@@H]1C[C@@H](O)CN1; NMeL = CN[C@@H](CC(C)C)C(=O)O; Morpholide = C1CN(*)CCO1; Ac4c = NC1(C(=O)O)CCC1; Sar = CNCC(=O)O

Columns and labels:
[1] = biological target: GDP-bound NRAS wild-type protein (Homo sapiens, UniProt P01111); assay: Binding to NRAS by surface plasmon resonance (SPR), KD and KD ratio to KRAS
Method in brief: (§1)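 Single-cycle kinetics on GDP-loaded biotin-Avi RAS captured to ~100–300 RU; 75 s ascending injections, 100 µL/min, 30°C. HBS pH 7.4 + 10 mM MgCl2/10 µM GDP/4% DMSO. 1:1 fit, KD.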

HRAS wild-type protein = HRAS wild-type protein (Homo sapiens, UniProt P01112); assay: Binding to HRAS by surface plasmon resonance (SPR), KD and KD ratio to KRAS
Method in brief: as §1

[2] = system: human lung cancer strain NCI-H441; format: cell-based
Method in brief: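 Proliferation was scored by […] measured after the reagent was added to cultures kept at 37°C in 5% carbon dioxide.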

[3] = ratio of KD value for GDP-bound NRAS wild-type protein to KD value for KRAS (SPR)
[4] = ratio of KD value for HRAS wild-type protein to KD value for KRAS (SPR)
[5] = ratio of KD for GDP-bound NRAS wild-type protein to KD for KRAS
[6] = ratio of KD for HRAS wild-type protein to KD for KRAS
[7] = ratio of the KD value with respect to GDP-bound NRAS wild-type protein to the KD value with respect to KRAS
[8] = ratio of the KD value with respect to HRAS wild-type protein to the KD value with respect to KRAS

Sequence of GDP-bound NRAS wild-type protein (P01111 whole entry): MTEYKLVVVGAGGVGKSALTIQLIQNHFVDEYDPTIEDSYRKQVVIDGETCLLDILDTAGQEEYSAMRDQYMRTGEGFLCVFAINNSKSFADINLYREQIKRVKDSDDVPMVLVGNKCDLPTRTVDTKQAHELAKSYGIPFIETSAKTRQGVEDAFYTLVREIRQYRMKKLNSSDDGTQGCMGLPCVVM
Sequence of HRAS wild-type protein (P01112 whole entry): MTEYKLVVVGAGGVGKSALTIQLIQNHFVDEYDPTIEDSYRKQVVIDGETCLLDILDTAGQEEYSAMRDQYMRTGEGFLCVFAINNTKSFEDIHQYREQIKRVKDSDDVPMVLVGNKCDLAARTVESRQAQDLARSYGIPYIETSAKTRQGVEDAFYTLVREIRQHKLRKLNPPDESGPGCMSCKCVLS

IC50 [2] [nM]	SMILES	NRAS /KRAS [1, 5]	HRAS /KRAS (HRAS wild-type protein; [6])	NRAS /KRAS [1, 7]	HRAS /KRAS (HRAS wild-type protein; [8])	further results
2.1	CCO[C@@H]1C[C@H]2C(=O)NC3(CC(C)(C)C3)C(=O)N(C)[C@@H](C3CCCC3)C(=O)N(C)[C@H](C(=O)N(C)CC)CC(=O)N(C)[C@@H](CC3CC3)C(=O)N[C@@H]([C@@H](C)CC)C(=O)N(C)CC(=O)N(C)[C@H]3C/C=C\CCN(C3=O)[C@@H](Cc3ccc(C(F)(F)F)cc3)C(=O)N(C)CC(=O)N[C@@H](CCc3cc(F)c(C(F)(F)F)c(F)c3)C(=O)N2C1 [PP1648]					NRAS /KRAS [1, 3]: A (a compound having 10 or more and less than 20 is denoted as A); HRAS /KRAS (HRAS wild-type protein; [4]): A (a compound having 10 or more and less than 20 is denoted as A)
5	CCO[C@@H]1C[C@H]2C(=O)NC3(CCCC3)C(=O)N(C)[C@@H](C3CCCC3)C(=O)N(C)[C@H](C(=O)N(C)C)CC(=O)N(C)[C@@H](CC(C)C)C(=O)N[C@@H]([C@@H](C)CC)C(=O)N(C)CC(=O)N(C)[C@H]3C[C@@H](C)CCN(C3=O)[C@@H](Cc3ccc(C(F)(F)F)cc3)C(=O)N(C)CC(=O)N[C@@H](CCc3cc(F)c(C(F)(F)F)c(F)c3)C(=O)N2C1 [PP1017]	C (A compound having a KD ratio of 0.1 or more and less than 3 is denoted as C)	B (a compound having 3 or more and less than 10 is denoted as B)			
7.4	CCCN(C)C(=O)[C@@H]1CC(=O)N(C)[C@@H](C)C(=O)N[C@@H]([C@@H](C)CC)C(=O)N(C)CC(=O)N(C)[C@H]2C/C=C\CCN(C2=O)[C@@H](Cc2ccc(C(F)(F)F)cc2)C(=O)N(C)CC(=O)N[C@@H](CCc2cc(F)c(C(F)(F)F)c(F)c2)C(=O)N2C[C@H](OCC)C[C@H]2C(=O)NC2(CC(F)(F)C2)C(=O)N(C)[C@@H](C2CCCC2)C(=O)N1C [PP1731]					NRAS /KRAS [1, 3]: A (a compound having 10 or more and less than 20 is denoted as A); HRAS /KRAS (HRAS wild-type protein; [4]): A (a compound having 10 or more and less than 20 is denoted as A)
8.8	CCC[C@H]1C(=O)N[C@@H]([C@@H](C)CC)C(=O)N(C)CC(=O)N(C)[C@H]2C/C=C\CCN(C2=O)[C@@H](Cc2ccc(C(F)(F)F)cc2)C(=O)N(C)CC(=O)N[C@@H](CCc2cc(F)c(C(F)(F)F)c(F)c2)C(=O)N2C[C@H](OCC)C[C@H]2C(=O)NC2(CCC2)C(=O)N(C)[C@@H](C2CCCC2)C(=O)N(C)[C@H](C(=O)N(C)CC)CC(=O)N1C [PP1304]					NRAS /KRAS ([1]; ratio of KD with respect to GDP-bound NRAS wild-type protein to KD with respect to KRAS): A (a compound having 10 or more and less than 20 is denoted as A); HRAS /KRAS (HRAS wild-type protein; ratio of KD with respect to HRAS wild-type protein to KD with respect to KRAS): A (a compound having 10 or more and less than 20 is denoted as A)
70.8	CC[C@H](C)[C@@H]1NC(=O)[C@H](CC(C)C)N(C)C(=O)C[C@@H](C(=O)N2CCOCC2)N(C)C(=O)[C@H](C2CCCC2)N(C)C(=O)C2(CCC2)NC(=O)[C@@H]2C[C@@H](O)CN2C(=O)[C@H](CCc2cc(F)c(C(F)(F)F)c(F)c2)NC(=O)CN(C)C(=O)[C@H](Cc2ccc(C(F)(F)F)cc2)N2CCCC[C@@H](C2=O)N(C)C(=O)CN(C)C1=O [PP0868]	C (A compound having a KD ratio of 0.1 or more and less than 3 is denoted as C)	B (a compound having 3 or more and less than 10 is denoted as B)			
18.4	CC[C@H](C)[C@@H]1NC(=O)[C@H](CC(C)C)N(C)C(=O)C[C@@H](C(=O)N2CCOCC2)N(C)C(=O)[C@H](C2CCCC2)N(C)C(=O)C2(CCOCC2)NC(=O)[C@@H]2CCCN2C(=O)[C@H](CCc2cc(F)c(C(F)(F)F)c(F)c2)NC(=O)CN(C)C(=O)[C@H](Cc2ccc(C(F)(F)F)cc2)N2CCCC[C@@H](C2=O)N(C)C(=O)CN(C)C1=O [PP0564]			B (a compound having 3 or more and less than 10 is denoted as B)	B (a compound having 3 or more and less than 10 is denoted as B)	
98.2	CCCN1C(=O)CN(C)C(=O)CNC(=O)[C@H]([C@@H](C)CC)NC(=O)[C@H](CC(C)C)N(C)C(=O)C[C@@H](C(=O)N2CCOCC2)NC(=O)[C@H](C2CCCC2)N(C)C(=O)C2(CCC2)NC(=O)[C@@H]2C[C@@H](OCC)CN2C(=O)[C@H](CCc2ccc(C(F)(F)F)c(Cl)c2)NC(=O)CN(C)C(=O)[C@@H]1Cc1ccc(C(F)(F)F)cc1 [PP0330] ([NMeL]IG[Sar][NPrPhe(4-CF3)][Sar][hPhe(3-Cl-4-CF3)][Hyp](Et)[Ac4c][NMeGly(cPent)]D-Morpholide; lactam N-11)	B (a compound having 3 or more and less than 10 is denoted as B)	C (A compound having a KD ratio of 0.1 or more and less than 3 is denoted as C)			
6.9	C#CC[C@H]1C(=O)N[C@@H]([C@@H](C)CC)C(=O)N(C)CC(=O)N(C)[C@H]2C/C=C\CCN(C2=O)[C@@H](Cc2ccc(C(F)(F)F)cc2)C(=O)N(C)CC(=O)N[C@@H](CCc2ccc(C(F)(F)F)c(OC)c2)C(=O)N2C[C@H](OCC)C[C@H]2C(=O)NC2(CC(C)(C)C2)C(=O)N(C)[C@@H](C2CCCC2)C(=O)N(C)[C@H](C(=O)N(C)CC)CC(=O)N1C [PP2051]			A (a compound having 10 or more and less than 20 is denoted as A)	A (a compound having 10 or more and less than 20 is denoted as A)	
11.3	CC[C@H](C)[C@@H]1NC(=O)[C@H](C(C)C)N(C)C(=O)C[C@@H](C(=O)N(C)CC)N(C)C(=O)[C@H](C2CCCC2)N(C)C(=O)C2(CC(C)(C)C2)NC(=O)[C@@H]2C[C@H](C)CN2C(=O)[C@H](CCc2ccc(C(F)(F)F)c(OC)c2)NC(=O)CN(C)C(=O)[C@H](Cc2ccc(C(F)(F)F)cc2)N2CC/C=C\C[C@@H](C2=O)N(C)C(=O)CN(C)C1=O [PP2003]			A (a compound having 10 or more and less than 20 is denoted as A)	B (a compound having 3 or more and less than 10 is denoted as B)	
18.2	CCO[C@@H]1C[C@H]2C(=O)NC3(CC(C)(C)C3)C(=O)N(C)[C@@H](C(CC)CC)C(=O)N(C)[C@H](C(=O)N3CCCC3)CC(=O)N(C)[C@@H](C)C(=O)N[C@@H]([C@@H](C)CC)C(=O)N(C)CC(=O)N(C)[C@H]3C/C=C\CCN(C3=O)[C@@H](Cc3ccc(C(F)(F)F)cc3)C(=O)N(C)CC(=O)N[C@@H](CCc3ccc(C(F)(F)F)c(OC)c3)C(=O)N2C1 [PP2163]			A (a compound having 10 or more and less than 20 is denoted as A)	A (a compound having 10 or more and less than 20 is denoted as A)	
144	CCO[C@@H]1C[C@H]2C(=O)NC3(CC(C)(C)C3)C(=O)N(C)[C@@H](C(CC)CC)C(=O)N(C)C(C(C)C)CC(=O)N(C)[C@@H](CC3CC3)C(=O)N[C@@H]([C@@H](C)CC)C(=O)N(C)CC(=O)N(C)[C@H]3C/C=C\CCN(C3=O)[C@@H](Cc3ccc(C(F)(F)F)cc3)C(=O)N(C)CC(=O)N[C@@H](CCc3cc(F)c(C(F)(F)F)c(F)c3)C(=O)N2C1 (stereo partly drawn) [PP1593]					NRAS /KRAS [1, 3]: A (a compound having 10 or more and less than 20 is denoted as A); HRAS /KRAS (HRAS wild-type protein; [4]): A (a compound having 10 or more and less than 20 is denoted as A)
136	CC[C@H](C)[C@@H]1NC(=O)[C@H](COC)N(C)C(=O)C[C@@H](C(=O)N2CCOCC2)N(C)C(=O)[C@H](C2CCCC2)N(C)C(=O)C2(CCCC2)NC(=O)[C@@H]2C[C@H](O)CN2C(=O)[C@H](CCc2cc(F)c(C(F)(F)F)c(F)c2)NC(=O)CN(C)C(=O)[C@H](Cc2ccc(C(F)(F)F)cc2)N2CCCCC[C@@H](C2=O)N(C)C(=O)CN(C)C1=O [PP0847]	B (a compound having 3 or more and less than 10 is denoted as B)	B (a compound having 3 or more and less than 10 is denoted as B)			
